Test results as given in ChEMBL document CHEMBL5352429, “Designed symmetrical β-hairpin peptides for treating multidrug-resistant salmonella typhimurium infections” (Eur J Med Chem, 2022).
Values after ≈ are worked out from the molar mass of the structure shown. Active and inactive are the calls of the source. No cut-off for these calls is given here. Peptide text beside a SMILES is read from it.

Tests used:
Staphylococcus aureus [1] = assay: Antibacterial activity against Staphylococcus aureus ATCC 29213 incubated overnight by standard microtiter dilution method; format: functional
Staphylococcus aureus [2] = assay: Antibacterial activity against methicillin-resistant Staphylococcus aureus ATCC 43300 incubated overnight by standard microtiter dilution method; format: functional
[3] = test system: Staphylococcus epidermidis; assay: Antibacterial activity against methicillin-resistant Staphylococcus epidermidis ATCC 12228 incubated overnight by standard microtiter dilution method; format: functional
Enterococcus faecalis = assay: Antibacterial activity against Enterococcus faecalis ATCC 29212 incubated overnight by standard microtiter dilution method; format: functional
Escherichia coli = assay: Antibacterial activity against Escherichia coli O157:H7 CICC 21530 incubated overnight by standard microtiter dilution method; format: functional
Salmonella paratyphi = assay: Antibacterial activity against Salmonella paratyphi A CICC 21501 incubated overnight by standard microtiter dilution method; format: functional, Salmonella enterica subsp. enterica serovar Paratyphi A; details: Salmonella enterica
[4] = test system: Salmonella enterica subsp. enterica serovar Paratyphi B; assay: Antibacterial activity against Salmonella paratyphi B CICC 21495 incubated overnight by standard microtiter dilution method; format: functional
[5] = Antibacterial activity against Salmonella paratyphi C CICC 21512 incubated overnight by standard microtiter dilution method; format: functional, Salmonella enterica subsp. enterica serovar Paratyphi C; details: Salmonella enterica
[6] = Antibacterial activity against Salmonella enterica subsp. enterica serovar Choleraesuis ATCC 13312 incubated overnight by standard microtiter dilution method; format: functional
[7] = Antibacterial activity against Salmonella enterica subsp. enterica serovar Choleraesuis CICC 21493 incubated overnight by standard microtiter dilution method; format: functional
Salmonella enteritidis = assay: Antibacterial activity against Salmonella enteritidis CICC 21527 incubated overnight by standard microtiter dilution method; format: functional, Salmonella enterica subsp. enterica serovar Enteritidis; details: Salmonella enterica
[8] = Antibacterial activity against Salmonella wandsworth CICC 21504 incubated overnight by standard microtiter dilution method; format: functional, Salmonella enterica subsp. enterica serovar Wandsworth; details: Salmonella enterica
Salmonella typhimurium [9] = assay: Antibacterial activity against Salmonella typhimurium CICC 21483 incubated overnight by standard microtiter dilution method; format: functional, Salmonella enterica subsp. enterica serovar Typhimurium; details: Salmonella enterica
Salmonella typhimurium [10] = assay: Antibacterial activity against Salmonella typhimurium CICC 21913 incubated overnight by standard microtiter dilution method; format: functional, Salmonella enterica subsp. enterica serovar Typhimurium; details: Salmonella enterica
[11] = Antibacterial activity against Salmonella blockley CICC 21489 incubated overnight by standard microtiter dilution method; format: functional, Salmonella enterica subsp. enterica serovar Blockley; details: Salmonella enterica
[12] = Antibacterial activity against Salmonella dublin CICC 21497 incubated overnight by standard microtiter dilution method; format: functional, Salmonella enterica subsp. enterica serovar Dublin; details: Salmonella enterica
Salmonella typhimurium [13] = assay: Antibacterial activity against Salmonella typhimurium DT104 ATCC 700408 incubated overnight by standard microtiter dilution method; format: functional, Salmonella enterica subsp. enterica serovar Typhimurium; details: Salmonella enterica
Candida albicans = assay: Antifungal activity against Candida albicans ATCC 10231 incubated overnight by standard microtiter dilution method; format: functional
Erythrocyte = assay: Hemolytic activity in human Red blood cells assessed as hemolysis incubated for 1 hrs by absorbance based microplate reader analysis; format: toxicity, cell-based
Salmonella typhimurium [14] = assay: Antibacterial activity against Salmonella typhimurium DT104 in the presence of NaCl by MH broth based assay; format: functional, Salmonella enterica subsp. enterica serovar Typhimurium; details: Salmonella enterica
Salmonella typhimurium [15] = assay: Antibacterial activity against Salmonella typhimurium DT104 in the presence of KCl by MH broth based assay; format: functional, Salmonella enterica subsp. enterica serovar Typhimurium; details: Salmonella enterica
Salmonella typhimurium [16] = assay: Antibacterial activity against Salmonella typhimurium DT104 in the presence of NH4Cl by MH broth based assay; format: functional, Salmonella enterica subsp. enterica serovar Typhimurium; details: Salmonella enterica
Salmonella typhimurium [17] = assay: Antibacterial activity against Salmonella typhimurium DT104 in the presence of CaCl2 by MH broth based assay; format: functional, Salmonella enterica subsp. enterica serovar Typhimurium; details: Salmonella enterica
Salmonella typhimurium [18] = assay: Antibacterial activity against Salmonella typhimurium DT104 in the presence of MgCl2 by MH broth based assay; format: functional, Salmonella enterica subsp. enterica serovar Typhimurium; details: Salmonella enterica
Salmonella typhimurium [19] = assay: Antibacterial activity against Salmonella typhimurium DT104 in the presence of FeCl3 by MH broth based assay; format: functional, Salmonella enterica subsp. enterica serovar Typhimurium; details: Salmonella enterica
Salmonella typhimurium [20] = assay: Antibacterial activity against Salmonella typhimurium DT104 in the presence 25% inactivated mouse serum by MH broth based assay; format: functional, Salmonella enterica subsp. enterica serovar Typhimurium; details: Salmonella enterica
Salmonella typhimurium [21] = assay: Antibacterial activity against Salmonella typhimurium DT104 in the presence 50% inactivated mouse serum by MH broth based assay; format: functional, Salmonella enterica subsp. enterica serovar Typhimurium; details: Salmonella enterica
[22] = Hemolytic activity in human Red blood cells assessed as hemolysis at 128 ug/ml incubated for 1 hrs by absorbance based microplate reader analysis relative to control; format: toxicity, cell-based, Erythrocyte; details: red blood cells (erythrocytes), at 128 µg/mL, read-out: Activity
[23] = Cytotoxicity against mouse RAW264.7 cells assessed as cell viability at 128 ug/ml incubated for 24 hrs by MTT assay; format: toxicity, cell-based; details: at 128 µg/mL, read-out: Activity
Salmonella typhimurium [24] = assay: Antibacterial activity against multi-drug resistant Salmonella typhimurium DT104 assessed as inhibition of bacterial growth at 0.5 to 2 times of MIC by MH agar based serial dilution method; format: functional, organism-based; details: Salmonella enterica subsp. enterica serovar Typhimurium, time <= 120.0 min, TDE = time-dependent effect
Salmonella typhimurium [25] = assay: Antibacterial activity against multi-drug resistant Salmonella typhimurium DT104 assessed as inhibition of bacterial growth measured upto 120 mins by MH agar based serial dilution method; format: functional, organism-based; details: Salmonella enterica subsp. enterica serovar Typhimurium
Lipopolysaccharide (LPS) = assay: Displacement of BODIPY-TR-cadaverine from Salmonella typhimurium LPS assessed as increase in fluorescence intensity by fluorescence spectrophotometric analysis; details: Salmonella enterica subsp. enterica serovar Typhimurium; dose 0.25-8 µg/ml
RAW264.7 [26] = assay: Inhibition of LPS-stimulated NO production in mouse RAW264.7 cells incubated for 24 hrs by Griess reagent based analysis; format: functional, cell-based; details: dose 1-128 µg/ml
RAW264.7 [27] = assay: Inhibition of LPS-stimulated TNF-alpha production in mouse RAW264.7 cells at 1 to 128 ug/ml incubated for 24 hrs by ELISA analysis; format: functional, cell-based; details: dose 1-128 µg/ml
RAW264.7 [28] = assay: Inhibition of LPS-stimulated IL-1beta production in mouse RAW264.7 cells at 1 to 128 ug/ml incubated for 24 hrs by ELISA analysis; format: functional, cell-based; details: dose 1-128 µg/ml
RAW264.7 [29] = assay: Inhibition of LPS-stimulated IL-8 production in mouse RAW264.7 cells at 1 to 128 ug/ml incubated for 24 hrs by ELISA analysis; format: functional, cell-based; details: dose 1-128 µg/ml
Cell membrane = assay: Disruption of membrane integrity in Salmonella typhimurium DT104 assessed as increase in fluorescence intensity at 0.5 to 2 times of MIC incubated for 15 mins by PI staining based flow cytometric analysis; format: subcellular; details: Salmonella enterica subsp. enterica serovar Typhimurium

SMILES	MIC (Staphylococcus aureus [1]) [µg/mL]	MIC (Staphylococcus aureus [2]) [µg/mL]	MIC [3] [µg/mL]	MIC (Enterococcus faecalis) [µg/mL]	MIC (Escherichia coli) [µg/mL]	MIC (Salmonella paratyphi) [µg/mL]	MIC [4] [µg/mL]	MIC [5] [µg/mL]	MIC [6] [µg/mL]	MIC [7] [µg/mL]	MIC (Salmonella enteritidis) [µg/mL]	MIC [8] [µg/mL]	MIC (Salmonella typhimurium [9]) [µg/mL]	MIC (Salmonella typhimurium [10]) [µg/mL]	MIC [11] [µg/mL]	MIC [12] [µg/mL]	MIC (Salmonella typhimurium [13]) [µg/mL]	MIC (Candida albicans) [µg/mL]	MHC (Erythrocyte) [µg/mL]	MIC (Salmonella typhimurium [14]) [µg/mL]	further results
CC(C)C[C@H](NC(=O)[C@H](CCCCN)NC(=O)[C@H](CC(C)C)NC(=O)[C@H](CCCCN)NC(=O)[C@H](CC(C)C)NC(=O)[C@H](CCCCN)NC(=O)[C@H](CS)NC(=O)CNC(=O)[C@H](CO)NC(=O)[C@H](CCCCN)NC(=O)[C@@H](NC(=O)[C@H](CS)NC(=O)[C@H](CCCCN)NC(=O)[C@H](CC(C)C)NC(=O)[C@H](CCCCN)NC(=O)[C@H](CC(C)C)NC(=O)[C@H](CCCCN)NC(=O)[C@@H](N)CC(C)C)[C@@H](C)O)C(N)=O (H-LKLKLKCTKSGCKLKLKL-NH2)	> 128	> 128	32 (≈ 15.6 µM)	64 (≈ 31.3 µM)	8 (≈ 3.91 µM)	> 128	4 (≈ 1.96 µM)	4 (≈ 1.96 µM)	4 (≈ 1.96 µM)	128 (≈ 62.6 µM)	64 (≈ 31.3 µM)	128 (≈ 62.6 µM)	128 (≈ 62.6 µM)	> 128	128 (≈ 62.6 µM)	32 (≈ 15.6 µM)	64 (≈ 31.3 µM)	128 (≈ 62.6 µM)	64	> 128	MIC (Salmonella typhimurium [15]): > 128 µg/mL; MIC (Salmonella typhimurium [16]): > 128 µg/mL; MIC (Salmonella typhimurium [17]): > 128 µg/mL; MIC (Salmonella typhimurium [18]): > 128 µg/mL; MIC (Salmonella typhimurium [19]): > 128 µg/mL; MIC (Salmonella typhimurium [20]): > 128 µg/mL; MIC (Salmonella typhimurium [21]): > 128 µg/mL; hemolysis at 1 h, 128 ug/ml [22]: 16.4%; viability at 24 h, 128 ug/ml [23]: 14.2%; Activity (Salmonella typhimurium [24]): Tde; Activity (Salmonella typhimurium [25]): Dose-Dependent Effect; Activity (Lipopolysaccharide (LPS)): Dose-Dependent Effect; inhibition (RAW264.7 [26]): Dose-Dependent Effect; inhibition (RAW264.7 [27]): Active; inhibition (RAW264.7 [28]): Active; inhibition (RAW264.7 [29]): Active; Activity (Cell membrane): Active
CC(C)[C@H](N)C(=O)N[C@@H](CCCCN)C(=O)N[C@H](C(=O)N[C@@H](CCCCN)C(=O)N[C@H](C(=O)N[C@@H](CCCCN)C(=O)N[C@@H](CS)C(=O)N[C@H](C(=O)N[C@@H](CCCCN)C(=O)N[C@@H](CO)C(=O)NCC(=O)N[C@@H](CS)C(=O)N[C@@H](CCCCN)C(=O)N[C@H](C(=O)N[C@@H](CCCCN)C(=O)N[C@H](C(=O)N[C@@H](CCCCN)C(=O)N[C@H](C(N)=O)C(C)C)C(C)C)C(C)C)[C@@H](C)O)C(C)C)C(C)C (H-VKVKVKCTKSGCKVKVKV-NH2)	> 128	> 128	4 (≈ 2.04 µM)	4 (≈ 2.04 µM)	2 (≈ 1.02 µM)	2 (≈ 1.02 µM)	1 (≈ 0.51 µM)	2 (≈ 1.02 µM)	0.5 (≈ 0.255 µM)	32 (≈ 16.3 µM)	32 (≈ 16.3 µM)	4 (≈ 2.04 µM)	64 (≈ 32.6 µM)	> 128	16 (≈ 8.16 µM)	4 (≈ 2.04 µM)	32 (≈ 16.3 µM)	8 (≈ 4.08 µM)	> 128	> 128	MIC (Salmonella typhimurium [15]): 128 µg/mL; MIC (Salmonella typhimurium [16]): 64 µg/mL; MIC (Salmonella typhimurium [17]): > 128 µg/mL; MIC (Salmonella typhimurium [18]): > 128 µg/mL; MIC (Salmonella typhimurium [19]): 64 µg/mL; MIC (Salmonella typhimurium [20]): > 128 µg/mL; MIC (Salmonella typhimurium [21]): > 128 µg/mL; hemolysis at 1 h, 128 ug/ml [22]: < 10%; viability at 24 h, 128 ug/ml [23]: 39.8%; Activity (Lipopolysaccharide (LPS)): Dose-Dependent Effect; inhibition (RAW264.7 [26]): Dose-Dependent Effect; inhibition (RAW264.7 [27]): Active; inhibition (RAW264.7 [28]): Active; inhibition (RAW264.7 [29]): Active; Activity (Cell membrane): Active
